Measured values as given in US20040044075A1, “Alpha acyloxyacetamides for kallikrein and urokinase inhibition” (Genzyme Corporation, priority 2002, published 2004).

Target: Kallikrein (Homo sapiens, UniProt P03952)
Assay: Kallikrein inhibition assay (fluorometric, H-Pro-Phe-Arg-AMC substrate)
Assay type: biochemical
Conditions: 24° C, HEPES pH 7.5, 5% DMSO, fluorescence after ten minutes
Description: Kallikrein activity was assayed fluorometrically with an aminomethyl coumarin-containing (AMC-containing) substrate according to procedures described in Zimmerman et al., Proc. Natl. Acad. Sci. USA 75:750 (1978), the entire teachings of which are incorporated herein by reference. Specifically, enzyme assays with varying concentrations of the fluorogenic substrate H-Pro-Phe-Arg-AMC were conducted at 24° C in 0.05 M 4-(2-hydroxyethyl)-piperazineethanesulfonic acid (HEPES) buffer, pH 7.5/5% (vol/vol) dimethyl sulfoxide. The final volume was 0.1 ml in each assay. Fluorescence was read after ten minutes at 360 nm (activation wavelength) and 460 nm (emission wavelength).

Sequence of Kallikrein (P03952 whole entry): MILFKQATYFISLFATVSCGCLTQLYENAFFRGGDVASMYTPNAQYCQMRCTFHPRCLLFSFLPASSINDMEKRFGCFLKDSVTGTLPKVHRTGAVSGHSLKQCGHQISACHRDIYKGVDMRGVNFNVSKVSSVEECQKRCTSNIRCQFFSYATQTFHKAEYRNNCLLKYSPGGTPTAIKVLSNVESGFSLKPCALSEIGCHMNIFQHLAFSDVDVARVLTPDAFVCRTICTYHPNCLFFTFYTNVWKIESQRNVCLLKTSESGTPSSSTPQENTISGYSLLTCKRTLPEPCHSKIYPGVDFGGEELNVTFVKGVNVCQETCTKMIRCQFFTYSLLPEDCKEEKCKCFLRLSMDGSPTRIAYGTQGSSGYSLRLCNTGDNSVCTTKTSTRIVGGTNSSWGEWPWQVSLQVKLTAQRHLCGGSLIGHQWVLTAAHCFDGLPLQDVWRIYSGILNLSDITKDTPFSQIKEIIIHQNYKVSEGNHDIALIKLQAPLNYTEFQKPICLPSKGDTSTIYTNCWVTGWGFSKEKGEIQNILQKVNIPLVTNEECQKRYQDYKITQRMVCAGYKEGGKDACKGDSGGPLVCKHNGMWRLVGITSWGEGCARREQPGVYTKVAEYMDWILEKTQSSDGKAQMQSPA

Structure (SMILES)	IC50
N#Cc1ccc(C(OC(=O)CCC2CCCCC2)C(=O)NC2CC2)cc1 (stereo not shown) [Compound (3)]	1.06 µM
COc1cc(CNC(=O)C(OC(=O)CCC(=O)c2ccccc2)c2ccccc2)cc(OC)c1OC (stereo not shown) [Compound (12)]	0.737 µM
COc1cc(CNC(=O)C(OC(=O)CCC(=O)c2ccccc2)c2ccc(SC)cc2)cc(OC)c1OC (stereo not shown) [Compound (13)]	0.874 µM
COc1cc(CNC(=O)C(OC(=O)CCC(=O)c2ccccc2)c2ccc(S(C)(=O)=O)cc2)cc(OC)c1OC (stereo not shown) [Compound (14)]	1.18 µM
COc1cc(CNC(=O)C(OC(=O)CSc2nc(C)cc(C)n2)c2cccc(C#N)c2)cc(OC)c1OC (stereo not shown) [Compound (18)]	6.47 µM
COc1cccc(OCCC(=O)OC(C(=O)NCc2cc(OC)c(OC)c(OC)c2)c2cccc(C#N)c2)c1 (stereo not shown) [Compound (19)]	1.69 µM
COc1cc(CNC(=O)C(OC(=O)CSc2ncccn2)c2cccc(C#N)c2)cc(OC)c1OC (stereo not shown) [Compound (20)]	1.48 µM
COc1cc(CNC(=O)C(OC(=O)CCCc2ccccc2)c2cccc(C#N)c2)cc(OC)c1OC (stereo not shown) [Compound (21)]	1.18 µM
O=C(CCOc1ccccc1)OC(C(=O)Nc1ccc2ncccc2c1)c1ccc(Br)cc1 (stereo not shown) [Compound (32)]	1.34 µM
COc1cc(CNC(=O)C(OC(=O)c2csc3cc4c(cc23)OC(C)(C)O4)c2ccc(Br)cc2)cc(OC)c1OC (stereo not shown) [Compound (36)]	3.67 µM
COc1ccc(OC)c(C(=O)CCC(=O)OC(C(=O)NCc2cc(OC)c(OC)c(OC)c2)c2ccccc2)c1 (stereo not shown) [Compound (37)]	1.67 µM
N#Cc1ccc(C(OC(=O)Cc2c[nH]c3ccccc23)C(=O)NC2CC2)cc1 (stereo not shown) [Compound (38)]	3.77 µM
COc1cc(CNC(=O)C(OC(=O)Cc2c[nH]c3ccc(Br)cc23)c2ccc(Br)cc2)cc(OC)c1OC (stereo not shown) [Compound (39)]	2.68 µM

Further lines, results first:

IC50	Structure (SMILES)
0.174 µM	COc1ccc(OC)c(C(=O)CCC(=O)OC(C(=O)NC2CC2)c2ccc(Br)cc2)c1 (stereo not shown) [Compound (1)]
0.167 µM	N#Cc1ccc(C(OC(=O)Cc2c[nH]c3ccc(Br)cc23)C(=O)NC2CC2)cc1 (stereo not shown) [Compound (2)]
0.442 µM	COC(=O)c1ccc(C(OC(=O)CCC(=O)c2ccccc2)C(=O)NCc2cc(OC)c(OC)c(OC)c2)cc1 (stereo not shown) [Compound (11)]
0.577 µM	COc1cc(CNC(=O)C(OC(=O)CCOc2ccccc2)c2cccc(C#N)c2)cc(OC)c1OC (stereo not shown) [Compound (15)]
0.253 µM	COc1ccc(OC)c(C(=O)CCC(=O)OC(C(=O)Nc2ccc(OC)c(OC)c2)c2cccc(C#N)c2)c1 (stereo not shown) [Compound (16)]
0.384 µM	COc1cc(CNC(=O)C(OC(=O)CSc2nccc(C)n2)c2cccc(C#N)c2)cc(OC)c1OC (stereo not shown) [Compound (17)]
0.428 µM	COc1ccc(CC(=O)OC(C(=O)Nc2ccc(OC)c(OC)c2)c2ccc(C#N)cc2)cc1 (stereo not shown) [Compound (22)]
0.576 µM	COc1ccc(CC(=O)OC(C(=O)NCc2cc(OC)c(OC)c(OC)c2)c2ccc(C#N)cc2)cc1 (stereo not shown) [Compound (23)]
0.275 µM	COc1ccc(OC)c(C(=O)CCC(=O)OC(C(=O)Nc2ccc(OC)c(OC)c2)c2ccc(Br)cc2)c1 (stereo not shown) [Compound (25)]
0.68 µM	COc1ccc(CC(=O)OC(C(=O)Nc2ccc(OC)c(OC)c2)c2ccc(Br)cc2)cc1 (stereo not shown) [Compound (28)]
0.714 µM	COc1ccc(NC(=O)C(OC(=O)CCOc2ccccc2)c2ccc(Br)cc2)cc1 (stereo not shown) [Compound (30)]
0.543 µM	COc1ccc(CCNC(=O)C(OC(=O)CSc2ncccn2)c2ccc(C#N)cc2)cc1 (stereo not shown) [Compound (31)]
0.459 µM	NC(=O)c1ccc(NC(=O)C(OC(=O)CCOc2ccccc2)c2ccc(Br)cc2)cc1 (stereo not shown) [Compound (33)]
0.731 µM	COc1ccc(OC)c(C(=O)CCC(=O)OC(C(=O)NCc2cc(OC)c(OC)c(OC)c2)c2ccc(C(F)(F)F)cc2)c1 (stereo not shown) [Compound (34)]
0.391 µM	COc1ccc(CC(=O)OC(C(=O)NC2CC2)c2ccc(C#N)cc2)cc1 (stereo not shown) [Compound (35)]
